Results taken from the supplement of paper PMC10307832.

Experiments:
Experiment in all cases: relative viability (nuclei count vs DMSO), 5 days (fraction); higher = more cells survive
Dactolisib + AZD7762 = compound: Cn1c(=O)n(-c2ccc(C(C)(C)C#N)cc2)c2c3cc(-c4cnc5ccccc5c4)ccc3ncc21 [Dactolisib] + NC(=O)Nc1cc(-c2cccc(F)c2)sc1C(=O)N[C@H]1CCCNC1 [AZD7762] (partner 0.2 µM)
In short: (§1)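 One day after seeding in 1536-well plates, lung cancer cell lines were dosed by pin tool. Dosing was either single-drug or a fixed anchor-drug dose plus five library-drug doses (not always all listed) in √10 steps. After 5 days, nuclei were stained in one fix-and-stain step and counted on 4× images, and relative viability is the nuclei count of treated wells over that of vehicle wells, given as the median of duplicate plates.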

AZ505 + Crizotinib = compound: C1CCC(CC1)N(CCNCCC2=C3C(=C(C=C2)O)NC(=O)CO3)C(=O)CCNCCC4=CC(=C(C=C4)Cl)Cl [AZ505] + C[C@@H](Oc1cc(-c2cnn(C3CCNCC3)c2)cnc1N)c1c(Cl)ccc(F)c1Cl [Crizotinib] (partner 1 µM)
In short: as §1

Dactolisib + Bortezomib = compound: Cn1c(=O)n(-c2ccc(C(C)(C)C#N)cc2)c2c3cc(-c4cnc5ccccc5c4)ccc3ncc21 [Dactolisib] + CC(C)C[C@H](NC(=O)[C@H](Cc1ccccc1)NC(=O)c1cnccn1)B(O)O [Bortezomib] (partner 0.002 µM)
In short: as §1

AZ505 + Bortezomib = compound: C1CCC(CC1)N(CCNCCC2=C3C(=C(C=C2)O)NC(=O)CO3)C(=O)CCNCCC4=CC(=C(C=C4)Cl)Cl [AZ505] + CC(C)C[C@H](NC(=O)[C@H](Cc1ccccc1)NC(=O)c1cnccn1)B(O)O [Bortezomib] (partner 0.002 µM)
In short: as §1

Cell Line | relative viability (Dactolisib + AZD7762; first compound 0.002 µM) | relative viability (Dactolisib + AZD7762; first compound 0.006325 µM) | relative viability (Dactolisib + AZD7762; first compound 0.02 µM) | relative viability (Dactolisib + AZD7762; first compound 0.06325 µM) | relative viability (Dactolisib + AZD7762; first compound 0.2 µM) | relative viability (AZ505 + Crizotinib; first compound 0.08 µM) | relative viability (AZ505 + Crizotinib; first compound 0.253 µM) | relative viability (AZ505 + Crizotinib; first compound 0.8 µM) | relative viability (AZ505 + Crizotinib; first compound 2.53 µM) | relative viability (AZ505 + Crizotinib; first compound 8 µM) | relative viability (Dactolisib + Bortezomib; first compound 0.006325 µM) | relative viability (Dactolisib + Bortezomib; first compound 0.02 µM) | relative viability (Dactolisib + Bortezomib; first compound 0.06325 µM) | relative viability (Dactolisib + Bortezomib; first compound 0.2 µM) | relative viability (AZ505 + Bortezomib; first compound 0.08 µM) | relative viability (AZ505 + Bortezomib; first compound 0.253 µM) | relative viability (AZ505 + Bortezomib; first compound 0.8 µM) | relative viability (AZ505 + Bortezomib; first compound 2.53 µM) | relative viability (AZ505 + Bortezomib; first compound 8 µM) | relative viability (Dactolisib + Bortezomib; first compound 0.002 µM)
NCI-H1648 | 0.934 | 0.762 | 0.629 | 0.603 | 0.555 |  |  |  |  |  |  |  |  |  |  |  |  |  |  | 
SK-MES-1 |  |  |  |  |  | 0.901 | 0.967 | 0.947 | 0.904 | 0.916 |  |  |  |  |  |  |  |  |  | 
SK-LU-1 |  |  |  |  |  | 0.608 | 0.731 | 0.649 | 0.664 | 0.714 | 1.05 | 1.21 | 1.16 | 0.457 | 0.703 | 0.561 | 0.778 | 0.923 | 0.761 | 
HCC-366 | 0.198 | 0.27 | 0.238 | 0.203 | 0.0362 | 0.418 | 0.365 | 0.551 | 0.396 | 0.534 | 1.09 | 0.988 | 0.593 | 0.481 | 0.933 | 1.01 | 1.02 | 0.952 | 1.11 | 0.963
201T | 0.578 | 0.64 | 0.613 | 0.464 | 0.402 | 0.986 | 1.03 | 0.932 | 1.01 | 1.02 | 1.08 | 1.08 | 1.07 | 0.856 | 1.09 | 1.11 | 1.06 | 1.11 | 1.07 | 1.05
HCC-827 | 0.226 | 0.279 | 0.176 | 0.184 | 0.231 | 0.865 | 0.854 | 0.913 | 0.918 | 0.948 | 1.01 | 1.11 | 1.14 | 1.05 | 0.92 | 0.957 | 1.01 | 1 | 1.1 | 1.12
NCI-H647 | 0.36 | 0.337 | 0.276 | 0.159 | 0.111 | 0.941 | 1.15 | 0.993 | 0.957 | 1.25 | 0.798 | 0.42 | 0.193 | 0.143 | 1.07 | 1.13 | 1 | 1.19 | 1.01 | 0.868
NCI-H2023 |  |  |  |  |  | 0.641 | 0.719 | 0.683 | 0.795 | 0.67 | 0.805 | 0.655 | 0.171 | 0.123 | 0.845 | 0.872 | 0.911 | 1.18 | 1.01 | 0.673
NCI-H520 |  |  |  |  |  | 0.744 | 0.899 | 0.704 | 0.727 | 0.728 | 0.715 | 0.263 | 0.121 | 0.134 | 0.588 | 0.504 | 0.496 | 0.706 | 0.762 | 0.397
RERF-LC-KJ | 1.02 | 0.922 | 0.818 | 0.572 | 0.489 | 0.769 | 0.848 | 0.774 | 0.842 | 0.833 | 0.978 | 1.01 | 0.641 | 0.574 | 1.02 | 1.02 | 1.18 | 1.09 | 1.12 | 1.17
A-427 | 0.749 | 0.698 | 0.688 | 0.498 | 0.306 | 0.771 | 0.829 | 0.766 | 0.837 | 0.944 | 0.959 | 0.966 | 0.61 | 0.581 | 0.928 | 0.978 | 1.03 | 0.917 | 0.997 | 0.947
NCI-H441 | 1.04 | 1.28 | 1.18 | 0.764 | 0.449 | 0.615 | 0.823 | 0.995 | 0.699 | 0.738 | 0.457 | 0.305 | 0.157 | 0.196 | 0.751 | 0.636 | 0.598 | 0.432 | 0.621 | 0.523
NCI-H1703 |  | 0.139 | 0.127 | 0.124 | 0.115 | 0.532 | 0.716 | 0.58 | 0.58 | 0.917 | 0.272 | 0.159 | 0.199 | 0.213 | 0.351 | 0.383 | 0.366 | 0.358 | 0.458 | 0.321
NCI-H1792 | 0.748 | 0.448 | 0.569 | 0.0821 | 0.0508 | 0.734 | 1.08 | 0.935 | 0.928 | 1.11 | 0.948 | 0.936 | 0.598 | 0.313 | 0.785 | 1.07 | 0.927 | 0.94 | 1 | 0.872
Calu-6 |  |  |  |  |  | 0.735 | 0.806 | 0.785 | 0.589 | 0.748 | 1.07 | 1.06 | 0.593 | 0.387 | 0.969 | 1.07 | 0.906 | 0.915 | 1.12 | 1.08
SW 1573 |  |  |  |  |  | 0.878 | 0.868 | 0.927 | 0.733 | 0.886 | 0.847 | 0.771 | 0.331 | 0.373 | 0.907 | 1.08 | 0.939 | 1.12 | 1.08 | 1.18
PC-3 [JPC-3] | 0.841 | 0.788 | 0.685 | 0.666 | 0.353 | 0.885 | 0.979 | 0.916 | 0.94 | 1.03 | 0.842 | 0.802 | 0.902 | 0.869 | 0.735 | 0.768 | 0.684 | 0.775 | 0.771 | 0.847
EMC-BAC-2 | 1.14 | 0.955 | 0.984 | 0.662 | 0.607 | 0.791 | 0.911 | 0.698 | 0.735 | 0.761 | 1.06 | 1.09 | 0.859 | 0.63 | 0.988 | 1.03 | 0.972 | 1.01 | 1.1 | 1.11
LK-2 | 0.273 | 0.447 | 0.305 | 0.12 | 0.0726 | 0.234 | 0.237 | 0.211 | 0.21 | 0.215 |  |  |  |  |  |  |  |  |  | 
